Measurements reported in US12344879B2, “Transgenic bacteria with expanded amino acid usage and nucleic acid molecules for use in the same” (BOARD OF REGENTS, THE UNIVERSITY OF TEXAS SYSTEM, priority 2015, dated 2025).

B1: tRNA^UG: tRNA^Sec derivative with strong EF-Tu binding region from the major E. coli tRNA^Gly (nucleic acid)
chain: GGAAGATGGTCGTCTCCGGTGAGGCGGCTGGACTCTAAATCCAGTTGGGGCCGCCAGCGGTCCCGGCGAGGTTCGACTCCTCGTATCTTCCGCCA
modifications: expressed or natural sequence
B2: FdhH U140S: E. coli formate dehydrogenase H with serine in place of selenocysteine 140 (protein, UniProt P07658 1-715, looked up, variant U140S)
Formate dehydrogenase H: MKKVVTVCPYCASGCKINLVVDNGKIVRAEAAQGKTNQGTLCLKGYYGWDFINDTQILTPRLKTPMIRRQRGGKLEPVSWDEALNYVAERLSAIKEKYGPDAIQTTGSSRGTGNETNYVMQKFARAVIGTNNVDCCARVSHGPSVAGLHQSVGNGAMSNAINEIDNTDLVFVFGYNPADSHPIVANHVINAKRNGAKIIVCDPRKIETARIADMHIALKNGSNIALLNAMGHVIIEENLYDKAFVASRTEGFEEYRKIVEGYTPESVEDITGVSASEIRQAARMYAQAKSAAILWGMGVTQFYQGVETVRSLTSLAMLTGNLGKPHAGVNPVRGQNNVQGACDMGALPDTYPGYQYVKDPANREKFAKAWGVESLPAHTGYRISELPHRAAHGEVRAAYIMGEDPLQTDAELSAVRKAFEDLELVIVQDIFMTKTASAADVILPSTSWGEHEGVFTAADRGFQRFFKAVEPKWDLKTDWQIISEIATRMGYPMHYNNTQEIWDELRHLCPDFYGATYEKMGELGFIQWPCRDTSDADQGTSYLFKEKFDTPNGLAQFFTCDWVAPIDKLTDEYPMVLSTVREVGHYSCRSMTGNCAALAALADEPGYAQINTEDAKRLGIEDEALVWVHSRKGKIITRAQVSDRPNKGAIYMTYQWWIGACNELVTENLSPITKTPEYKYCAVRVEPIADQRAAEQYVIDEYNKLKTRLREAALA

How the values were obtained:
[1] = tested on: human cellular glutathione peroxidase (GPx-1) codon 49; experiment: Selenocysteine incorporation into GPx-1 U49 by intact mass spectrometry; parameters: species or system E. coli RTΔA.2; conditions: GPx-1 U49, pGPx-U49-AU and pRSF-eSelAK
Procedure: RTΔA.2 transformants containing pGPx-U49-AU and pRSF-eSelAK were cultured as described previously for azurin. Cells were harvested by centrifugation and resuspended in 50 mL of buffer (50 mM Potassium Phosphate, 150 mM NaCl, 10% glycerol, 1 mM DTT at pH 8.0) and lysozyme at 1 mg·mL^−1. Cells were lysed by sonication and clarified prior to GPx-1 recovery by IMAC. Eluate was concentrated and dialyzed against 100 mM phosphate buffer pH 8.0, 0.1% Tween 20 and 1 mM DTT followed by isolation of GPx-1 by anion exchange chromatography (Q HP column). GPx-1 was produced with a yield of 500 μg·L^−1 and close to 100% selenocysteine incorporation efficiency.
Intact protein samples were analyzed using methods described previously (Ellefson et al., 2014). Azurin, DHFR and GPx-1 samples were buffer exchanged into LC-MS grade water using 10 kDa molecular weight cutoff filters. Once the buffer exchange was complete the samples were diluted to 20 μM in a methanol/water/formic acid (50/49/1) solution. […] UVPD mass spectra were also deconvoluted using Xtract and then analyzed using ProsightPC 3.0. […] Incorporation efficiencies were calculated by dividing the area of the modified protein peak by the summed areas of the unmodified protein peak and the modified protein peak. […]

[2] = tested on: NMC-A β-lactamase reporter (C69X); experiment: NMC-A β-lactamase reporter assay (ampicillin resistance by amber suppression with selenocysteine); assay type: cell-based, E. coli DHΔabc; conditions: NMC-A C69X reporter, DHΔabc
Excerpt: A method of genetic selection capable of discriminating different levels of selenocysteine incorporation was developed. To specifically ‘addict’ a reporter protein to selenocysteine rather than serine, the NMC-A β-lactamase from Enterobacter cloacae was used. […] Then cysteine 69 was replaced with an amber stop codon (X69; FIG. 1a) for library selection, hypothesizing that the incorporation of selenocysteine and the formation of a selenyl-sulfhydryl bond would restore activity. (Swardn et al., 1998)
To eliminate any crosstalk between the tRNA^Sec library and the endogenous selenocysteine incorporation machinery, the selA, selB and selC genes (encoding SelA, SelB and tRNA^Sec respectively) were deleted from E. coli DH10B (designated DHΔabc). Cells containing the reporter plasmid pNMC-A C69X and the accessory plasmid pRSF-eSelA (expressing SelA) were transformed with plasmid pMB1-ZU containing the tRNA^Sec antideterminant library. Transformants were plated on media containing a gradient of ampicillin concentrations for selection of mutants capable of selenocysteine-specific suppression. The single colonies that arose covered a range of ampicillin concentrations. […] Of these tRNA^Sec variants, only G7-C66:U49-G65:C50-U64 was detected at the two highest ampicillin concentration (200 and 250 μg·ml^−1).
The tRNA^Sec antideterminant library was generated by enzymatic inverse PCR using oligonucleotide primers (Table 2) to randomize the six positions identified as the main antideterminant for EF-Tu binding. Following self ligation for 16 hours, DNA was ethanol precipitated with GlycoBlue (Ambion) and transformed by electroporation into E. coli DHΔabc containing the plasmids pNMC-A C69X and pRSF-eSelA. Transformants were diluted in 200 ml LB medium containing 12.5 μg·mL^−1 Zeocin, 6.25 μg·mL^−1 tetracycline and 25 μg·mL^−1 kanamycin and incubated overnight. Following overnight growth, cells were diluted 1/50 in LB medium containing 6.25 μg·mL^−1 Zeocin, 3.75 μg·mL^−1 tetracycline, 12.5 μg·mL^−1 kanamycin, 1 μM Na2SeO3 and 20 μg·mL^−1 L-cysteine and incubated for one hour. A series of 250 μl aliquots of cells were plated on LB agar containing 6.25 μg·mL^−1 Zeocin, 3.75 μg·mL^−1 tetracycline, 12.5 […], 1 μM Na2SeO3 and 20 μg·mL^−1 L-cysteine and 50-300 μg·mL^−1 ampicillin in 50 μg·mL^−1 increments. After 20 hours at 37° C. individual colonies were observed on plates containing 50-200 μg·mL^−1 ampicillin. Plasmid DNA was isolated from a selection of colonies from all plates and tRNA^Sec mutations determined by Sanger sequencing.
NotI/NcoI fragments containing tRNA^SecUx were subcloned into pRSF-eSelA to generate pRSF-UX-eSelA. pRSF-U-eSelA variants described in Table 1 were transformed into E. coli DHΔabc containing the reporter plasmid pNMC-A C69TAG. DHΔabc cells containing pNMC-A and pRSFDuet-1 were used as a positive control. DHΔabc cells harboring pNMC-A C69S and pRSF-UX-eSelA, and pNMC-A C69TAG and pRSF-UX-ΔSelA were used as controls for selenocysteine dependent β-lactamase activity. Transformants were cultured overnight in LB medium containing 6.25 μg·mL^−1 tetracycline, 25 μg·mL^−1 kanamycin, 1 μM Na2SeO3 and 20 […]. Following overnight growth, cells were diluted 1/10 in LB medium containing antibiotics, selenite and L-cysteine and incubated for three hours. […]

[3] = tested on: E. coli formate dehydrogenase H (FdhH); experiment: Benzyl viologen assay; assay type: cell-based, E. coli DHΔabcF; conditions: FdhH U140TAG or U140S reporter, co-expressed with SelA, anaerobic
Procedure: The tRNA^Sec variant containing the G7-C66:U49-G65:C50-U64 (SEQ ID NO: 18) antideterminant sequence was designated tRNA^SecUx and was compared with the previously designed chimera (tRNA^UTu) and with a tRNA^Sec derivative designed to have an antideterminant region that should tightly bind EF-Tu (tRNA^UG; FIG. 2a). […] The hybrid tRNA^UTu incorporated selenocysteine and could grow on 75 μg·ml^−1. […] To further confirm tRNA^SecUx incorporated selenocysteine in response to amber stop codons, a standard colorimetric assay was employed based on the activity of the endogenous E. coli selenoprotein formate dehydrogenase H (FdhH) (FIG. 2b).
E. coli DH10B cells containing pRSFDuet-1 and pcat-pheS were used as a positive control. DHΔabcF cells harboring p15A-fdhF U140S and pRSF-UX-eSelA, and p15A-fdhF U140X and pRSF-UX-ΔSelA were used as controls for selenocysteine dependent formate dehydrogenase activity. Transformants were grown overnight at 37° C. in LB medium supplemented with 12.5 μg·mL^−1 tetracycline and 50 μg·mL^−1 kanamycin. Overnight cultures were diluted 1/20 in a final volume of 2 ml and incubated for three hours. Cultures were normalized to OD600=0.5 and 5 μl aliquots were dotted on LB agar plates containing 3.75 μg·mL^−1 tetracycline, 12.5 μg·mL^−1 kanamycin, 5 mM sodium formate, 10 μM Na2MoO4, 1 μM Na2SeO3 and 20 μg·mL^−1 L-cysteine. Plates were incubated at 37° C. for 3 h under aerobic conditions and then transferred to anaerobic conditions at 37° C. for 60 h. Upon removal from the anaerobic chamber, plates were immediately overlaid with agar containing 1 mg·mL^−1 benzyl viologen, 250 mM sodium formate and 25 mM KH2PO4 at pH 7.0. Plates were photographed within 1 h of overlaying.

Row | Molecule | production of active β-lactamase [2] | further results
1 | GPx-1: Recombinant human cellular glutathione peroxidase with selenocysteine at codon 49 |  | selenocysteine incorporation efficiency in GPx-1 [1]: ~100%
2 | tRNA^SecCUA: Parental E. coli tRNA^Sec containing a CUA anticodon [reference compound] | failed to produce active β-lactamase | 
3 | B1 | failed to produce active β-lactamase | 
4 | B2 |  | FdhH activity (reduction of benzyl viologen) [3]: completely inactive
